In PMC11965454, “Simultaneous determination of lesinurad and co-administered drugs used in management of gout comorbidities to uncover potential pharmacokinetic interaction in rat plasma” (Scientific Reports, 2025):
Where two headings read alike, the source gives them in different places.

Tests used:
[1] = Stability of the studied drugs in rat plasma (freeze-thaw, bench-top, long-term), HPLC-DAD; assay type: in vitro ADME; conditions: n = 3; for recovery at 6 h, 1000 ng/ml / recovery at 35 days, 1000 ng/ml / recovery at 1000 ng/ml: rat plasma; for recovery at 6 h, 1000 ng/ml / recovery at 6 h, 10000 ng/ml / recovery at 6 h, 25000 ng/ml: 6 h at room temperature; for recovery at 35 days, 1000 ng/ml / recovery at 35 days, 10000 ng/ml / recovery at 35 days, 25000 ng/ml: 35 days at -20 °C; for recovery at 1000 ng/ml / recovery at 10000 ng/ml / recovery at 25000 ng/ml: three cycles -20 °C / room temperature; for recovery at 6 h, 10000 ng/ml / recovery at 35 days, 10000 ng/ml / recovery at 10000 ng/ml: rat plasma, 10,000 ng/ml; for recovery at 6 h, 25000 ng/ml / recovery at 35 days, 25000 ng/ml / recovery at 25000 ng/ml: rat plasma, 25,000 ng/ml
Protocol: Stability studies were conducted by preparing low, medium and high plasma QC samples in triplicates under different conditions and comparing them with freshly prepared quality control samples. Namely, three freeze-thaw cycles (freeze at -20 °C then thaw at room temperature for three cycles), bench-top stability testing for 6 h at room temperature and long-term stability testing for 35 days at -20 °C.

[2] = Stock solution stability (methanol), HPLC-DAD; assay type: physicochemical; conditions: stock solution in methanol, n = 3; for recovery at 6 h, 1000 ng/ml / recovery at 6 h, 10000 ng/ml / recovery at 6 h, 25000 ng/ml: 6 h at room temperature, read-out: Stock solution stability (room temp.) Recovery%; for recovery at 30 days, 1000 ng/ml / recovery at 30 days, 10000 ng/ml / recovery at 30 days, 25000 ng/ml: 30 days at 4 °C; for recovery at 6 h, 10000 ng/ml / recovery at 30 days, 10000 ng/ml: 10,000 ng/ml; for recovery at 6 h, 25000 ng/ml / recovery at 30 days, 25000 ng/ml: 25,000 ng/ml
[3] = Drug interaction pharmacokinetic study of LES and ETC, single oral dose, plasma levels by HPLC-DAD; assay type: in vivo, Sprague-Dawley rats; conditions: for k el: read-out: Ke (converted); for AUC: n=5; for Change of Ke: after repeated administration of the other drug vs alone; for Change of area under the curve (AUC): single oral dose following the repeated administration of the other drug vs alone
Description: The HPLC-DAD system consisted of Agilent 1200 series (auto-injector, quaternary pump, vacuum degasser and diode array and multiple wavelength detector G1315 C/D and G1365 C/D) connected to a computer loaded with Agilent ChemStation Software (Agilent Technologies, Santa Clara, CA, USA). […] The chromatographic separation was achieved using a Zorbax Eclipse Plus C18 (4.6 × 250 mm, 5 μm particle size) column attached to Zorbax Eclipse Plus C18 (4.6 × 12.5 mm, 5 μm particle size) analytical guard column (Agilent Technologies, Santa Clara, CA, USA). The gradient elution was composed of the mobile phase: acetonitrile and 0.05 M potassium dihydrogen orthophosphate eluted in the ratios and at flow rates listed in Table 1 using an injection volume of 50 µL. All determinations were performed at 25 °C. All pH measurements were made using a Hanna pH meter, (RI, USA). Calibration was done using standard buffers of pH 4 and 7 at room temperature.
The internal standard DIC (0.05 mL) was added to each 0.2 mL rat plasma sample. To the rat plasma sample, 0.6 mL of acetonitrile were added. In order to equalize the final volumes in both; the standard calibration curve samples and the rat plasma samples, up to 1 mL of methanol were added. The samples were covered, vortexed for 1 min at high speed followed by centrifugation for 10 min at ~ 2500 × g. The organic layer was transferred to HPLC autosampler vials. For each sample, 50 µL were directly injected into the HPLC system.
The animal study has been designed and the results have been reported in accordance with the ARRIVE Guidelines. All animal experiments were conducted according to an experimental protocol approved by the Institutional Animal Care and Use Committee at Alexandria University (Serial Number 135) and in compliance with the Guide for the Care and Use of Laboratory Animals of the Institute for Laboratory Animal Research of the National Academy of Sciences, U.S.A. Animals were obtained from the animal facility at the Research and Innovation Hub at Alamein International University. Single dose pharmacokinetics of LES and ETC, as well as the effect of repeated administration of one on the PK parameters of the other reflecting the PK interactions if any, were assessed as described in our previous work[33]. Since the parameters of the oral pharmacokinetic investigation in experimental animals, in terms of feeding and fasting durations, oral dosing timing and volumes, blood sampling, as well as time intervals of redosing, can be controlled with relative ease, rat group sizes of 5–6 were sufficient for the detection of statistical difference in previous studies carried out in our laboratory[34],[35], and in other groups[36],[37], including studies that looked into the pharmacokinetics of ETC and LES[27],[38]. As will be seen below, the experiment was designed for paired comparison with before and ater measurements from the same rats, further increasing the power for statistical analysis. As such, ten healthy adult male Sprague-Dawley rats (8 weeks of age, ~ 250 g weight) were randomized into two groups of five rats each: LES PK group and ETC PK group. No criteria were set for animal allocation per group. Rats were housed in polycarbonate cages on wood shavings bedding at the animal facility at Alamein International University under controlled temperature (23 °C) and humidity (45%) and a 12-hour dark/light cycle. Rats were given ad libitum access to drinking water and commercial rodent chow (21% protein, Al-Fajr Animal Feed, Beheira, Egypt) prior to and during the experiment. The PK parameters of single doses of each drug were determined at baseline in the respective group and once more after seven days of administration of the other drug, without a washout period. To elaborate, on Day 0, following twelve hours of fasting, rats in each group received a single dose of the respective drug by oral gavage (15 mg/Kg for LES[27], and 5 mg/Kg for ETC[39]). […]

[4] = system: plasma albumin; conditions: cited from earlier work
[5] = male, Sprague-Dawley, ETC 5 mg/Kg single oral dose alone (Day 0), rat plasma, Mean ± SEM
[6] = male, Sprague-Dawley, plasma, LES 15 mg/Kg single oral dose alone (Day 0), rat, Mean ± SEM

## COC(=O)[C@@H]1CC2=CC(=O)CC[C@]2(C)[C@@]23O[C@@H]2C[C@@]2(C)[C@@H](CC[C@@]24CCC(=O)O4)[C@H]13 [EPL, eplerenone]
[1]
  recovery at 6 h, 1000 ng/ml: 105%
  recovery at 35 days, 1000 ng/ml: 104%
  recovery at 1000 ng/ml: 91.9%
  recovery at 6 h, 10000 ng/ml: 96.8%
  recovery at 35 days, 10000 ng/ml: 97.6%
  recovery at 10000 ng/ml: 94.3%
  recovery at 6 h, 25000 ng/ml: 94.2%
  recovery at 35 days, 25000 ng/ml: 92.6%
  recovery at 25000 ng/ml: 103%
[2]
  recovery at 6 h, 1000 ng/ml: 101%
  recovery at 30 days, 1000 ng/ml: 102%
  recovery at 6 h, 10000 ng/ml: 102%
  recovery at 30 days, 10000 ng/ml: 97.9%
  recovery at 6 h, 25000 ng/ml: 102%
  recovery at 30 days, 25000 ng/ml: 98.9%

## Cc1ccc(-c2ncc(Cl)cc2-c2ccc(S(C)(=O)=O)cc2)cn1 [ETC, etoricoxib]
[3]; ETC 5 mg/Kg single oral dose alone (Day 0), rat, method of residuals, Mean ± SEM
  Ka: 1.82 ± 0.55 h⁻¹
[3]; male, Sprague-Dawley, plasma, ETC 5 mg/Kg single oral dose alone (Day 0), rat, Mean ± SEM
  k el: 4.17e-05 s⁻¹
[3]; male, Sprague-Dawley, plasma, ETC 5 mg/Kg single oral dose alone (Day 0), rat, one phase decay, Mean ± SEM
  half-life: 4.88 ± 0.56 h
[3]; male, Sprague-Dawley, plasma, ETC 5 mg/Kg single oral dose alone (Day 0), rat, read-out: Tmax
  Tmax: 1 h
[3]; [5]
  Cmax: 1170 ± 148 ng/mL
  AUC: 11200 ng·h/mL
[3]; rat, ETC in the continued presence of LES vs alone
  Change of absorption rate constant (Ka): increased Ka
[3]; rat
  Change of Ke: neither t1/2 nor Ke changed
  Change of area under the curve (AUC): increased
[1]
  recovery at 6 h, 1000 ng/ml: 97.5%
  recovery at 35 days, 1000 ng/ml: 95.8%
  recovery at 1000 ng/ml: 98%
  recovery at 6 h, 10000 ng/ml: 92.8%
  recovery at 35 days, 10000 ng/ml: 94.1%
  recovery at 10000 ng/ml: 95.3%
  recovery at 6 h, 25000 ng/ml: 92.7%
  recovery at 35 days, 25000 ng/ml: 90.4%
  recovery at 25000 ng/ml: 96.5%
[2]
  recovery at 6 h, 1000 ng/ml: 99.5%
  recovery at 30 days, 1000 ng/ml: 98.3%
  recovery at 6 h, 10000 ng/ml: 99.5%
  recovery at 30 days, 10000 ng/ml: 96.4%
  recovery at 6 h, 25000 ng/ml: 98.8%
  recovery at 30 days, 25000 ng/ml: 99.2%
[4]; ref PMID: 18840026
  Binding to plasma albumin: extensively bound to plasma albumin

## O=C(O)CSc1nnc(Br)n1-c1ccc(C2CC2)c2ccccc12 [LES, lesinurad]
[3]; LES 15 mg/Kg single oral dose alone (Day 0), rat
  Tmax: 2 h
[3]; LES 15 mg/Kg single oral dose alone (Day 0), rat, Mean ± SEM
  Ka: 3.32 ± 0.78 h⁻¹
[3]; [6]
  half-life: 3.96 ± 1.07 h
  k el: 7.78e-05 s⁻¹
[3]; male, Sprague-Dawley, LES 15 mg/Kg single oral dose alone (Day 0), rat plasma, Mean ± SEM
  AUC: 9600 ± 1890 ng·h/mL
[3]; rat, LES after repeated ETC administration vs alone
  Change of Cmax: sharp increase in Cmax
[3]; rat
  Change of Ke: neither t1/2 nor Ke changed
  Change of area under the curve (AUC): increased
[1]
  recovery at 6 h, 1000 ng/ml: 92.5%
  recovery at 35 days, 1000 ng/ml: 93.8%
  recovery at 1000 ng/ml: 91.6%
  recovery at 6 h, 10000 ng/ml: 92.5%
  recovery at 35 days, 10000 ng/ml: 94.7%
  recovery at 10000 ng/ml: 93.8%
  recovery at 6 h, 25000 ng/ml: 96.1%
  recovery at 35 days, 25000 ng/ml: 94.6%
  recovery at 25000 ng/ml: 92.7%
[2]
  recovery at 6 h, 1000 ng/ml: 97.3%
  recovery at 30 days, 1000 ng/ml: 98.7%
  recovery at 6 h, 10000 ng/ml: 96.5%
  recovery at 30 days, 10000 ng/ml: 97.2%
  recovery at 6 h, 25000 ng/ml: 94.8%
  recovery at 30 days, 25000 ng/ml: 99.2%
[4]; ref PMID: 31191704
  Binding to plasma albumin: extensively bound to plasma albumin
